What was measured:
[1] = test system: human hepatoma cell line Hep-G2; assay: Cytotoxicity towards tumour cells in vitro (Cell Titer 96 formazane colorimetric assay); type: cell-based; settings: 48 h, percentage inhibition of the formation of formazane relative to the control
Experimental: The cytotoxicity of some compounds described in the preceding Examples was evaluated in vitro on human hepatoma cell line Hep-G2, by means of a commercial colorimetric method (Cell Titer 96® Aque ous One Solution Cell Proliferation Assay—Promega); the method determines the number of viable cells on the basis of their capacity to metabolise a tetrazolium salt producing formazane. The quantity of formazane produced is proportional to the number of viable cells.
The Hep-G2 cells are distributed 96 well microplates at a density of 4×10^4 cells/well (100 μl), in M199 medium containing 10% foetal bovine serum and supplements (complete medium).
After 24 hours' incubation (37° C., 5% CO2, 90% humidity), the cells are washed once and the medium is replenished with 200 μl of complete medium containing the substances to be tested at the final concentration of 10^−5, 10^−6 and 10^−7M. The test is performed in triplicate.
The plates are incubated for a further 48 h, at the end of which 100 μl of medium are removed and 20 μl/well of staining solution are added in accordance with the supplier's instructions. Optical density (λ=490 nm) is read after 1 hour's incubation at 37° C. using a plate reader (Victor2—Wallac Perkin Elmer).

[2] = test system: TNFα production by peripheral blood mononucleocytes stimulated with LPS; assay: Inhibition of TNFα production by human monocytes stimulated with LPS; type: cell-based; settings: LPS 10 ng/ml, 24 hours, ELISA
Experimental: The compounds were dissolved in DMSO at a final concentration of 10 mM.
The solutions for the assay were prepared by diluting the mother solutions in RPMI 1640 with the addition of 1% FCS and 0.01% DMSO and were filtered with 0.2 μm filters.
The peripheral blood mononucleocytes were obtained from blood from healthy donors by separation in a Ficoll-Hypaque gradient [C. G. Figdor, et al. Blood, 1982, 60: 46-53]. The cells were sown in 96-well plates, at a concentration of approx. 500,000 cells per well, suspended in RPMI 1640 containing 1% FCS and were incubated at 37° C. in the presence of different concentrations (from 10^−6 to 10^−11M) of the compounds to be investigated. After 1 hour, LPS was added (at a final concentration of 10 ng/ml; obtained from E. coli 055:B5) and the plates were incubated at 37° C. for a further 24 hours. At the end of this period, the supernatants were collected and used for the determination of TNFα content by means of ELISA (DuoSet ELISA kit; R&D Systems, Minneapolis, Minn., USA).
The concentration of TNFα was calculated using a calibration curve and the IC50 values (the concentration which brings about 50% inhibition of the production of the cytokine) were calculated from the curve obtained by plotting the percentage inhibition values for each individual concentration of the compound under investigation.

IC50 [2] [nM]	Compound	Cytotoxicity at 10^−5 M [1] [%]	Cytotoxicity at 10^−6 M [1] [%]
23.7	O=C(NO)c1ccc(NC(=O)[C@H](Cc2ccc(C(F)(F)F)cc2)NC(=O)c2ccc3ccccc3c2)cc1 [Example 2w, N-[1(S)-(4-hydroxycarbamoyl-phenylcarbamoyl)-2-(4-trifluoromethyl-phenyl)-ethyl]-amide of naphthalene-2-carboxylic acid]	65.7	25.3
8.6	O=C(NO)c1ccc(NC(=O)[C@H](Cc2ccccc2)NC(=O)c2ccc3ccccc3c2)cc1 [Example 2x, N-[1(S)-(4-hydroxycarbamoyl-phenylcarbamoyl)-2-phenyl-ethyl]-amide of naphthalene-2-carboxylic acid]	77.3	15.3

Compound	IC50 [2] [nM]	Cytotoxicity at 10^−5 M [1] [%]	Cytotoxicity at 10^−6 M [1] [%]
O=C(NO)c1ccc(NC(=O)[C@H](Cc2ccc(-c3ccccc3)cc2)NC(=O)c2ccc3ccccc3c2)cc1 [Example 2y, N-[1(S)-(4-hydroxycarbamoyl-phenylcarbamoyl)-2-(biphenyl-4-yl)-ethyl]-amide of naphthalene-2-carboxylic acid]	21.3	73.7	20.4
